Where “and” joins values, the source holds several entries; their conditions need not be identical. Equal entries are not always repeated. Where two headings read alike, the source gives them in different places.
Assays:
[1] = tested on: EpiAirway™ (AIR-100) tissues; conditions: for TEER Significant?: alpha 0.05
[2] = tested on: EpiAirway™ (AIR-100) tissues
[3] = tested on: EpiAirway™ (AIR-100) tissues; conditions: H&E staining after 24-hour recovery
[4] = post 24 hr recovery: Untreated Control vs treatment
[5] = pre exposure vs post 24 hr recovery, same treatment

Substance: Triton X-100 [0.5% Triton]
- Effect on barrier function / TEER ([1]; 24-hour recovery): dropped completely
- 24 hr TEER Mean ([1]; group mean n=3 tissues, after 24-hour recovery): 8.6 Ohms*cm2
- Pre-Exposure TEER Mean ([1]; group mean n=3 tissues, before exposure): 749.8 Ohms*cm2
- 24 hr TEER Ohms*cm2 ([1]; per tissue, after 24-hour recovery): 9.0 Ohms*cm2 and 8.4 Ohms*cm2
- Pre-Exposure TEER Ohms*cm2 ([1]; per tissue, before exposure): 672.0 Ohms*cm2 and 832.8 Ohms*cm2 and 744.6 Ohms*cm2
- TEER Mean Diff., Tukey's multiple comparisons test [1, 4]: 628.6
- TEER Significant? [1, 4]: Yes
- TEER Mean Diff., Tukey's multiple comparisons test [1, 5]: 741.2
- TEER Significant? [1, 5]: Yes
- TEER statistics test details: group mean, pre exposure ([1]; pre exposure, N=3): 749.8
- 24 hr TEER ([1]; raw reading per tissue after 24-hour recovery, background 5 not subtracted): 20 and 19
- Pre-Exposure TEER ([1]; raw reading per tissue before exposure, background 5 not subtracted): 1125 and 1393 and 1246
- Effect on tissue viability ([2]; LDH assay, 24-hour time point): complete loss of viability
- LDH viability Mean Diff., Tukey's multiple comparisons test ([2]; Untreated Control vs treatment): 100
- LDH viability Significant? ([2]; Untreated Control vs treatment, alpha 0.05): Yes
- LDH Group Mean OD ([2]; group mean n=3 tissues, 24-hour time point): 1.125
- % Viability Mean ([2]; group mean n=3 tissues, LDH assay, 24-hour time point): 0.0%
- LDH Mean OD ([2]; mean of duplicates per tissue, 24-hour time point): 1.181 and 1.062 and 1.132
- LDH statistics test details: group mean ([2]; percent viability, 24-hour time point): −0.01667
- Tissue morphology [3]: significant tissue disruption

Reference: patent US12648926B2, “Dietary supplement comprising aldehyde functional monoterpenoids” (priority 2020, dated 2026)
